In ChEMBL document CHEMBL1955818, “Might the observed α(2A)-adrenoreceptor agonism or antagonism of allyphenyline analogues be ascribed to different molecular conformations?” (Bioorg Med Chem, 2012):

Key:
[1] = target: T1, Alpha-2C adrenergic receptor (Homo sapiens) (UniProt P18825); experiment: Intrinsic activity at human adrenoceptor aplha 2C expressed in CHO cells by cytosensor microphysiometric analysis relative to (-)-noradrenaline; assay type: cell-based
T1 sequence (whole entry): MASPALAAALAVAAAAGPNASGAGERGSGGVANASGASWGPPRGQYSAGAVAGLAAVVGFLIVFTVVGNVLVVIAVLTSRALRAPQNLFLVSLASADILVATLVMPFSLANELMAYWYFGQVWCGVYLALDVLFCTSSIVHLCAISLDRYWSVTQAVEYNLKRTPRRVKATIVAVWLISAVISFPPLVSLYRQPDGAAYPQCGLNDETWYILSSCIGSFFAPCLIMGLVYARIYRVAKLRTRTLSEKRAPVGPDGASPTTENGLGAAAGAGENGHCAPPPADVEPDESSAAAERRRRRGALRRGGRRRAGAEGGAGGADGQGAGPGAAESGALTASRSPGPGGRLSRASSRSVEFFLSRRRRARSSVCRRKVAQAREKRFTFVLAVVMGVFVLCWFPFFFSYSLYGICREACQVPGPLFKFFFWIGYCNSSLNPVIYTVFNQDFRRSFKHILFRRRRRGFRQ

[2] = target: T2, Alpha-2B adrenergic receptor (Homo sapiens, UniProt P18089); experiment: Agonist activity at human adrenoceptor aplha 2B expressed in CHO cells assessed as rate of extracellular acidification by cytosensor microphysiometric analysis; assay type: functional, cell-based
T2 sequence (P18089 whole entry): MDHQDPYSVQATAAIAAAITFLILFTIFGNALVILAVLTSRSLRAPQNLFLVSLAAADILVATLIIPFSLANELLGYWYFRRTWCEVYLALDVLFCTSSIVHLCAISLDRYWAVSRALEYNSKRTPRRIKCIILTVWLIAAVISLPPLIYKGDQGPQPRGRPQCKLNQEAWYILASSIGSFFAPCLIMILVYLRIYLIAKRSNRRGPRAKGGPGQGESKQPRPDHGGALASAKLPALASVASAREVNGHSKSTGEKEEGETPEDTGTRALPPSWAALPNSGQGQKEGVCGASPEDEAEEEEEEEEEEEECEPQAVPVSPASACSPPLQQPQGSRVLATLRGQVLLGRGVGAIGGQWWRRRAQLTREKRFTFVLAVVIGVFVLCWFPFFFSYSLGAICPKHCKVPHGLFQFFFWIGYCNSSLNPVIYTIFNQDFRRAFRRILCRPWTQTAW

[3] = target: T3, Alpha-2A adrenergic receptor (Homo sapiens) (UniProt P08913); settings: CHO
T3 sequence (whole entry): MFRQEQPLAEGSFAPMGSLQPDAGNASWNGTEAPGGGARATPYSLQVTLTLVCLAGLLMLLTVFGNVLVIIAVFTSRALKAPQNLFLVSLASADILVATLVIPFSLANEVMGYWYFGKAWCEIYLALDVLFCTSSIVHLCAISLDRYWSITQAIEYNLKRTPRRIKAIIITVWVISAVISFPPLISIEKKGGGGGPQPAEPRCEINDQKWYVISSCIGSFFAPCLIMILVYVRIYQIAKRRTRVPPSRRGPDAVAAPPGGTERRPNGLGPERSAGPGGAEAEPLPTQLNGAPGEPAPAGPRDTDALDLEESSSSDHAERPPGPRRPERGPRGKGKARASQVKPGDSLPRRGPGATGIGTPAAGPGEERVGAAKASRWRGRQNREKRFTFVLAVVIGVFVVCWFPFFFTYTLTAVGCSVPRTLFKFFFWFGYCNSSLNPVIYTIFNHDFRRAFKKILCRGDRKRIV
Description: Antagonist activity at human adrenoceptor aplha 2A expressed in CHO cells assessed as inhibition of clonidine-induced response by cytosensor microphysiometric analysis

[4] = target: T4, Alpha-2C adrenergic receptor (Homo sapiens, UniProt P18825); experiment: Agonist activity at human adrenoceptor aplha 2C expressed in CHO cells assessed as rate of extracellular acidification by cytosensor microphysiometric analysis; assay type: functional, cell-based
T4 sequence (P18825 whole entry): T1 sequence (whole entry)

[5] = target: T5, Alpha-2B adrenergic receptor (Homo sapiens) (UniProt P18089); experiment: Intrinsic activity at human adrenoceptor aplha 2B expressed in CHO cells by cytosensor microphysiometric analysis relative to (-)-noradrenaline; assay type: cell-based
T5 sequence (whole entry): T2 sequence (P18089 whole entry)

[6] = target: T2, Alpha-2B adrenergic receptor; experiment: Displacement of [3H]RS-79948-197 from human adrenoceptor aplha 2B expressed in CHO cells; assay type: cell-based
[7] = target: T6, Alpha-2A adrenergic receptor (Homo sapiens, UniProt P08913); experiment: Displacement of [3H]RS-79948-197 from human adrenoceptor aplha 2A expressed in CHO cells; assay type: cell-based
T6 sequence (P08913 whole entry): T3 sequence (whole entry)

[8] = target: T4, Alpha-2C adrenergic receptor; experiment: Displacement of [3H]RS-79948-197 from human adrenoceptor aplha 2C expressed in CHO cells; assay type: cell-based
[9] = target: T6, Alpha-2A adrenergic receptor; experiment: Agonist activity at human adrenoceptor aplha 2A expressed in CHO cells assessed as rate of extracellular acidification by cytosensor microphysiometric analysis; assay type: functional, cell-based

| SMILES | Intrinsic activity [1] | EC50 [2] | pKb [3] | EC50 [4] | Intrinsic activity [5] | Ki [6] | Ki [7] | Ki [8] | EC50 [9] |
| --- | --- | --- | --- | --- | --- | --- | --- | --- | --- |
| C=COc1ccccc1OC(C)C1=NCCN1 (centres undefined) | 0.48 | 3160 nM | 5 | 631 nM | 0.45 |  |  |  |  |
| CC(Oc1ccccc1Cl)C1=NCCN1 (centres undefined) | 0.83 | 162 nM | 7.2 | 166 nM | 0.44 | 331 nM | 28.8 nM | 490 nM |  |
| CC(=O)c1ccccc1OC(C)C1=NCCN1 (centres undefined) | 0.65 | 295 nM |  | 200 nM | 0.6 | 6170 nM | 1020 nM | 7410 nM | 63.1 nM |
| CC(Oc1ccccc1C(F)(F)F)C1=NCCN1 (centres undefined) | 0.72 | 240 nM | 6.42 | 794 nM | 0.4 | 1620 nM | 182 nM | 977 nM |  |
| CC(Oc1c(Cl)cccc1Cl)C1=NCCN1 (centres undefined) [LOFEXIDINE] | 0.8 | 126 nM |  | 1.38 nM | 0.8 | 67.6 nM |  | 69.2 nM |  |
| Cc1cccc(C)c1OC(C)C1=NCCN1 (centres undefined) | 0.82 | 1480 nM |  | 27.5 nM | 0.8 | 182 nM | 11.7 nM | 251 nM | 18.6 nM |
| CC(Oc1ccccc1CC1CC1)C1=NCCN1 (centres undefined) [CYCLOMETHYLINE] | 0.8 | 3310 nM |  | 2 nM | 0.7 | 407 nM | 36.3 nM | 275 nM |  |
| CC(Oc1ccccc1C=O)C1=NCCN1 (centres undefined) | 0.6 | 316 nM |  | 100 nM | 0.5 | 2090 nM | 1050 nM | 8710 nM | 31.6 nM |
| CC(Oc1ccccc1S(C)(=O)=O)C1=NCCN1 (centres undefined) | 0.6 | 10000 nM |  | 316 nM | 0.45 | 51300 nM | 3160 nM | 3800 nM | 562 nM |
| CC(Oc1c(-c2ccccc2)cccc1-c1ccccc1)C1=NCCN1 (centres undefined) | 0.7 | 200 nM | 8 | 79.4 nM | 0.6 | 4570 nM | 490 nM | 631 nM |  |
| CC(Oc1ccccc1Br)C1=NCCN1 (centres undefined) | 0.87 | 316 nM | 7.04 | 10 nM | 0.4 | 355 nM | 22.9 nM | 282 nM |  |
| COc1ccccc1OC(C)C1=NCCN1 (centres undefined) | 0.6 | 100000 nM | 6.6 | 9770 nM | 0.5 | 871 nM | 57.5 nM | 832 nM |  |
| CC(C)Oc1ccccc1OC(C)C1=NCCN1 (centres undefined) | 0.7 | 1740 nM | 6.82 | 100 nM | 0.5 | 1580 nM | 83.2 nM | 398 nM |  |
| C=C(C)c1ccccc1OC(C)C1=NCCN1 (centres undefined) | 0.71 | 1580 nM | 7 | 115 nM | 0.4 | 871 nM | 72.4 nM | 603 nM |  |
| CC(Oc1ccccc1OC1CC1)C1=NCCN1 (centres undefined) | 0.7 | 12900 nM | 6.9 | 47.9 nM | 0.6 | 1050 nM | 83.2 nM | 676 nM |  |
| CCc1ccccc1OC(C)C1=NCCN1 (centres undefined) | 0.6 | 10000 nM | 6 | 100 nM | 0.5 | 282 nM | 24 nM | 288 nM |  |
| CCOc1ccccc1OC(C)C1=NCCN1 (centres undefined) | 0.45 | 3160 nM | 6.5 | 10000 nM | 0.5 | 1320 nM | 97.7 nM | 759 nM |  |
| C=CCc1cccc(CC=C)c1OC(C)C1=NCCN1 (centres undefined) | 0.9 | 501 nM | 8.56 | 56.2 nM | 0.65 | 275 nM | 16.6 nM | 129 nM |  |
| CC(Oc1ccccc1C(C)C)C1=NCCN1 (centres undefined) | 0.73 | 251 nM | 6.82 | 398 nM | 0.54 | 933 nM | 72.4 nM | 457 nM |  |
| CCc1cccc(CC)c1OC(C)C1=NCCN1 (centres undefined) | 0.65 | 1000 nM |  | 27.5 nM | 0.8 | 269 nM | 31.6 nM | 275 nM | 11.7 nM |
